Results from PMC5403781, “Heterologous expression of a Streptomyces cyaneus laccase for biomass modification applications” (AMB Express, 2017).
Read-outs that look alike come from different tables or passages of the source.

Tests used:
ScLac [1] = test system: T1, ScLac; assay: spectrophotometric oxidation, […] nm; format: biochemical, Streptomyces cyaneus; conditions: 100 mM MES pH 5.5, 30 °C; free enzyme, copper-loaded; substrate 5–95 µM; read-out: DMP
T1 construct: C-terminal His6 tag (pET-22b(+), NdeI/XhoI), expressed in E. coli BL21 (DE3) Star; primers encode N-terminus METDIIER and C-terminal HGAGHTG before the LE-His6 tag; copper-loaded with CuSO4 after purification

ScLac [2] = conditions: read-out: ABTS; 100 mM MES pH 5.5, 30 °C; free enzyme, copper-loaded; substrate 5–95 µM
ScLac [3] = test system: T1, ScLac; assay: spectrophotometric oxidation, […] nm; format: biochemical, Streptomyces cyaneus; conditions: 100 mM MES pH 5.5, 30 °C; free enzyme, copper-loaded; substrate 5–95 µM; read-out: Guaiacol

SMILES: COc1cccc(OC)c1O [DMP, 2,6-dimethoxyphenol]
- Km (ScLac [1]): 202 ± 34.8 µM

SMILES: CCn1c(=NN=c2sc3cc(S(=O)(=O)O)ccc3n2CC)sc2cc(S(=O)(=O)O)ccc21 [ABTS]
- Km (ScLac [2]): 33.5 ± 27.9 µM

SMILES: COc1ccccc1O [guaiacol]
- Km (ScLac [3]): 5.4 ± 1.9 µM
